Results from patent US6472348B1, “Pyridone derivatives and herbicides” (Kumiai Chemical Industry Co., Ltd., priority 1996, dated 2002).

How the values were obtained:
Format in all cases: in vivo
Set-up in all cases: scale not given here
[1] = tested on: common lambsquarters (Ch); assay: Test Example 9: crop plant selectivity by upland field foliage treatment (wheat), herbicidal effects; details: dose 1.6 g ai/10a, 14th day after treatment
In short: (§1)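 Sand-filled pot, wheat + weeds co-sown; greenhouse 2 wk, then foliage treatment; greenhouse culture continued; visual scoring of weed control and crop injury at 14 d post-treatment per grading scale.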

China jute (Ab) [2] = assay: as above; details: dose 1.6 g ai/10a, 14th day after treatment
In short: as §1

pale smartweed (Po) [3] = assay: as above; details: dose 1.6 g ai/10a, 14th day after treatment
In short: as §1

slender amaranth (Am) [4] = assay: as above; details: dose 1.6 g ai/10a, 14th day after treatment
In short: as §1

pale smartweed (Po) [5] = assay: Test Example 6: crop plant selectivity by upland field soil treatment (soybean), herbicidal effects; details: 21st day after application
In short: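 Greenhouse pot test with soil-applied compound after sowing soybean and weeds in sand; effects graded on day 21 after application.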

[6] = tested on: common lambsquarters (Ch); assay: Test Example 5: crop plant selectivity by upland field soil treatment (wheat), herbicidal effects; details: dose 6.3 g ai/10a, 21st day after application
In short: (§2)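 Upland soil treatment test: crop and weed species sown in sand-filled pots and covered with soil before compound application. Visual scoring of weed control and wheat injury 21 days post-application, plants kept in a greenhouse, using a standard rating scale.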

green foxtail (Se) [7] = assay: as above; details: dose 6.3 g ai/10a, 21st day after application
In short: as §2

China jute (Ab) [8] = assay: as above; details: dose 6.3 g ai/10a, 21st day after application
In short: as §2

pale smartweed (Po) [9] = assay: as above; details: dose 6.3 g ai/10a, 21st day after application
In short: as §2

slender amaranth (Am) [10] = assay: as above; details: dose 6.3 g ai/10a, 21st day after application
In short: as §2

green foxtail (Se) [11] = assay: Test Example 4: crop plant selectivity by upland field soil treatment (cotton), herbicidal effects; details: evaluated 21st day after application
In short: (§3)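 Cotton is sown alongside weeds in pots of sand, covered with soil, and the soil surface is treated. After greenhouse growth, herbicidal activity and phytotoxicity are graded on the 21st day.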

slender amaranth (Am) [12] = assay: as above; details: evaluated 21st day after application
In short: as §3

CCCC(=O)c1cc(-c2ccc(C(F)(F)F)n(C)c2=O)c(F)cc1Cl [Compound No. 1-194, 3-[4-chloro-2-fluoro-5-(1-oxobutyl)phenyl]-1-methyl-6-trifluoromethyl-2(1H)-pyridone]
5: Herbicidal effects Ch [1] | Herbicidal effects Ab (China jute (Ab) [2]) | Herbicidal effects Po (pale smartweed (Po) [3]) | Herbicidal effects Am (slender amaranth (Am) [4]) | Herbicidal effects Po (pale smartweed (Po) [5]; dose 6.3 g ai/10a) | Herbicidal effects Ch [6] | Herbicidal effects Se (green foxtail (Se) [7]) | Herbicidal effects Ab (China jute (Ab) [8]) | Herbicidal effects Po (pale smartweed (Po) [9]) | Herbicidal effects Am (slender amaranth (Am) [10]) | Herbicidal effects Se (green foxtail (Se) [11]; dose 6.3 g ai/10 a) | Herbicidal effects Am (slender amaranth (Am) [12]; dose 6.3 g ai/10 a)

Cn1c(C(F)(F)F)ccc(-c2c(F)cc(Cl)c3oc(CO)cc23)c1=O [Compound No. 4-5, 3-(7-chloro-5-fluoro-2-hydroxymethylbenzofuran-4-yl)-1-methyl-6-trifluoromethyl-2-(1H)-pyridone]
5: Herbicidal effects Ch [1] | Herbicidal effects Ab (China jute (Ab) [2]) | Herbicidal effects Po (pale smartweed (Po) [3]) | Herbicidal effects Am (slender amaranth (Am) [4]) | Herbicidal effects Po (pale smartweed (Po) [5]; dose 6.3 g ai/10a) | Herbicidal effects Ch [6] | Herbicidal effects Se (green foxtail (Se) [7]) | Herbicidal effects Ab (China jute (Ab) [8]) | Herbicidal effects Po (pale smartweed (Po) [9]) | Herbicidal effects Am (slender amaranth (Am) [10]) | Herbicidal effects Se (green foxtail (Se) [11]; dose 6.3 g ai/10 a) | Herbicidal effects Am (slender amaranth (Am) [12]; dose 6.3 g ai/10 a)

Cn1c(C(F)(F)F)ccc(-c2c(F)cc(Cl)c3occc23)c1=O [Compound No. 4-28, 3-(7-chloro-5-fluorobenzofuran-4-yl)-1-methyl-6-trifluoromethyl-2-(1H)-pyridone]
5: Herbicidal effects Ch [1] | Herbicidal effects Ab (China jute (Ab) [2]) | Herbicidal effects Po (pale smartweed (Po) [3]) | Herbicidal effects Am (slender amaranth (Am) [4]) | Herbicidal effects Po (pale smartweed (Po) [5]; dose 1.6 g ai/10a) | Herbicidal effects Ch [6] | Herbicidal effects Se (green foxtail (Se) [7]) | Herbicidal effects Ab (China jute (Ab) [8]) | Herbicidal effects Po (pale smartweed (Po) [9]) | Herbicidal effects Am (slender amaranth (Am) [10]) | Herbicidal effects Se (green foxtail (Se) [11]; dose 1.6 g ai/10 a) | Herbicidal effects Se (green foxtail (Se) [11]; dose 6.3 g ai/10 a) | Herbicidal effects Am (slender amaranth (Am) [12]; dose 1.6 g ai/10 a) | Herbicidal effects Am (slender amaranth (Am) [12]; dose 6.3 g ai/10 a)
